From ChEMBL document CHEMBL2346631, “Thiazolidine-2,4-diones: progress towards multifarious applications” (Bioorg Med Chem, 2013)

Tested on: Mus musculus
Assay: Hypoglycemic activity in KKAy mouse assessed as reduction of blood glucose level at 38 mg/kg/day, po relative to control
Format: functional
Parameters: scale not given: the % may be the effect or the level left

Structure (SMILES): Cc1oc(-c2ccccc2)nc1CCOc1ccc(CC2C(=O)NOC2=O)cc1 (stereo unspecified) [REGLITAZAR]
- Activity: 25%
